The source of these data is patent publication US11946094B2, “Combination therapies and methods of use thereof” (Augusta University Research Institute, Inc., priority 2017, dated 2024).

Like-named read-outs stand apart in the source and are kept apart here.

For this data set, the system named is OVCAR-8 cells. Briefly: Drug-siRNA combination screen: 346-compound anticancer library at 100 nM, CCK-8 viability. Conditions: for synergy / antagonism of drug with gene knockdowns, in words: panel of 18 siRNA knockdowns; for number of tested HDACi highly synergistic with the gene knockdown: 12 tested HDACi.
Setting [1] is: OVCAR-8, drug 100 nM plus siRNA knockdown of each of 18 genes, distance VAB−VA×VB in SD, single gene contributes at most +5 / −5, negative = synergy, positive = antagonism.
Where [2] appears, read: OVCAR-8, drug 100 nM, siRNA knockdown.

Protocol: Comparisons of drug effect were performed using data generated on the same day. A minimum of two replicates was performed with drug library screening and a minimum of three replicates was done for all other tests.
Combinatorial effects were classified using two measures of combinatorial action: 1) the coefficient of drug interaction (CDI), defined as (VAB/(VA×VB)) and 2) the distance in standard deviation (SD) of VAB−(VA×VB). […] In confirmation studies significance was determined using a Student's T-test (two-tailed, unpaired) with p<0.05 indicating significance.
To measure the effect of a gene on drug effect, comparisons were made between high expressers of each gene and the wild type cells exposed to sham reagents.
In theory, CDI<1 is indicative of synergy while CDI>1 is indicative of antagonism or additive effect in a multiplicative model.

For the compound `C=CCn1c(=O)c2cnc(Nc3ccc(N4CCN(C)CC4)cc3)nc2n1-c1cccc(C(C)(C)O)n1` [MK-1775], under setting [1], the “Score (sum of observed SD values for 18 genes)” value is on record as -64.04 SD. Moreover, for the setting “OVCAR-8, drug 100 nM”, the “synergy / antagonism of drug with gene knockdowns, in words” value (“synergy / antagonism of drug” for short) is on record as “Frequently among the top synergizing pairs”. In addition, the “number of genes (of 18) with high synergy with the drug” value under setting [2] is recorded as 13 genes.

Consider `COC1=C(OC)C(=O)C(C/C=C(\C)CC/C=C(\C)CC/C=C(\C)CC/C=C(\C)CC/C=C(\C)CC/C=C(\C)CC/C=C(\C)CC/C=C(\C)CC/C=C(\C)CCC=C(C)C)=C(C)C1=O` [Coenzyme Q10], for which the “Score (sum of observed SD values for 18 genes)” value under setting [1] was −4.69 SD.

For `CC(c1cc2ccccc2s1)N(O)C(N)=O` (centres unmarked) [Zileuton], under setting [1], the “Score (sum of observed SD values for 18 genes)” value was −19.64 SD.

Regarding `CNCc1ccc(-c2[nH]c3cc(F)cc4c3c2CCNC4=O)cc1` [Rucaparib], the “Score (sum of observed SD values for 18 genes)” value under setting [1] is given as −3.34 SD.

With `Cc1cc2c(F)c(Oc3ncnn4cc(OC[C@@H](C)O)c(C)c34)ccc2[nH]1` [Brivanib], the “Score (sum of observed SD values for 18 genes)” value under setting [1] was −14.38 SD.

Regarding `Nc1ccccc1NC(=O)c1ccc(CNc2nccc(-c3cccnc3)n2)cc1` [Mocetinostat], the “Score (sum of observed SD values for 18 genes)” value under setting [1] is listed as 1.27 SD. Further, under “OVCAR-8, drug 100 nM”, the “synergy / antagonism of drug” value is on record as “frequently antagonized by knockdown of specific genes”.

Consider `O=C(NOC[C@H](O)CO)c1ccc(F)c(F)c1Nc1ccc(I)cc1F` [PD0325901], for which the “Score (sum of observed SD values for 18 genes)” value under setting [1] is reported as −37.42 SD.

Consider `Cn1cc(C2=C(c3cn(C4CCN(Cc5ccccn5)CC4)c4ccccc34)C(=O)NC2=O)c2ccccc21` [Enzastaurin], for which the “Score (sum of observed SD values for 18 genes)” value under setting [1] is listed as −6.53 SD.

In the case of `CC(C)n1nc(-c2ccc3oc(N)nc3c2)c2c(N)ncnc21` [INK 128], the “Score (sum of observed SD values for 18 genes)” value under setting [1] is −44.98 SD.

Turning to `N#Cc1c(O)c2c(-c3ccc(-c4ccccc4O)cc3)csc2[nH]c1=O` [A-769662], the “Score (sum of observed SD values for 18 genes)” value under setting [1] is on record as −22.81 SD.

Turning to `N#CCNC(=O)c1ccc(-c2ccnc(Nc3ccc(N4CCOCC4)cc3)n2)cc1` [Momelotenib], the “Score (sum of observed SD values for 18 genes)” value under setting [1] is −0.52 SD.

As to “S100A11: siRNA knocking down S100A11; sense GAACUAGCUGCCUUCACAAtt (SEQ ID NO 27) (sense GAACUAGCUGCCUUCACAANN; antisense UUGUGAAGGCAGCUAGUUCNN; chemistry not given here)”, under “OVCAR-8”, the “number of tested HDACi highly synergistic with the gene knockdown” value is 10 of 12.

With `Cc1[nH]c(/C=C2\C(=O)Nc3ccc(S(=O)(=O)N(C)c4cccc(Cl)c4)cc32)c(C)c1C(=O)N1CCN(C)CC1` [SU11274], under setting [1], the “Score (sum of observed SD values for 18 genes)” value is −0.42 SD.

Turning to `CCN(CCCOc1ccc2c(Nc3cc(CC(=O)Nc4cccc(F)c4)n[nH]3)ncnc2c1)CCOP(=O)(O)O` [Barasertib], the “Score (sum of observed SD values for 18 genes)” value under setting [1] was 20.03 SD.

Take `C[C@]1(O)C[C@@H](c2nc(-c3ccc4ccc(-c5ccccc5)nc4c3)c3c(N)nccn32)C1` [Linsitinib]: the “Score (sum of observed SD values for 18 genes)” value under setting [1] is on record as −28.72 SD.

With `CO[C@H]1/C=C\C=C(/C)C(=O)NC2=CC(=O)C(NCCN(C)C)=C(C[C@@H](C)C[C@H](OC)[C@H](O)[C@@H](C)/C=C(\C)[C@@H]1OC(N)=O)C2=O.Cl` [17 - DMAG HCI], under setting [1], the “Score (sum of observed SD values for 18 genes)” value came to 19.7 SD.

As to `Cc1ccc2c(=O)c3cccc(CC(=O)O)c3oc2c1C` [Vadimezan], the “Score (sum of observed SD values for 18 genes)” value under setting [1] is given as −28.75 SD.

Consider `CCn1c(=O)c(-c2cc[nH]n2)cc2c(C)nc(N)nc21` [XL765], for which the “Score (sum of observed SD values for 18 genes)” value under setting [1] is reported as −10.06 SD.

As to `CC(C)(C)c1cc(NC(=O)Nc2ccc(-c3cn4c(n3)sc3cc(OCCN5CCOCC5)ccc34)cc2)no1` [Quizartinib], the “Score (sum of observed SD values for 18 genes)” value under setting [1] is on record as −12.85 SD.

As to `Nc1nc(=O)c2c([nH]1)NCC(CNc1ccc(C(=O)N[C@@H](CCC(=O)[O-])C(=O)[O-])cc1)N2C=O.[Ca+2]` (some centres unmarked) [Leucovorin Calcium], under setting [1], the “Score (sum of observed SD values for 18 genes)” value was found to be 1.29 SD.

In the case of `CO[C@@H](C(=O)N1Cc2n[nH]c(NC(=O)c3ccc(N4CCN(C)CC4)cc3)c2C1)c1ccccc1` [Danusertib], the “Score (sum of observed SD values for 18 genes)” value under setting [1] is −2.99 SD.

Consider “AXL: siRNA knocking down AXL; sense CAGCGAGAUUUAUGACUAUtt (SEQ ID NO 15) (sense CAGCGAGAUUUAUGACUAUNN; antisense AUAGUCAUAAAUCUCGCUGNN; listed as RNA, chemistry not given here)”, for which the “number of tested HDACi highly synergistic with the gene knockdown” value (OVCAR-8) is reported as “at least six”. Further, where the note is “OVCAR-8, 346 compounds”, the “number of antagonistic/additive or highly antagonistic compounds with the gene knockdown” value is “Twelve or fewer”.

On to `OCCn1cc(-c2cnc3nnn(Cc4ccc5ncccc5c4)c3n2)cn1` [PF-04217903], for which the “Score (sum of observed SD values for 18 genes)” value under setting [1] is on record as −6.89 SD.

On to `Cc1ccc(C(=O)N(CCCN)[C@@H](c2oc3cc(Cl)ccc3c(=O)c2Cc2ccccc2)C(C)C)cc1` [SB 743921], for which the “Score (sum of observed SD values for 18 genes)” value under setting [1] is −4.09 SD.

Regarding `CCCC(=O)[O-].[Na+]` [Sodium butyrate], the “Score (sum of observed SD values for 18 genes)” value is listed as −16.25 SD.

`Cl.O=C1CN2Cc3c(ccc(Cl)c3Cl)N=C2N1` [Anagrelide HCI]: under setting [1], the “Score (sum of observed SD values for 18 genes)” value is −8.01 SD.

Consider `Cn1c(=O)c(F)c(Nc2ccc(I)cc2F)c2c(=O)n(C[C@@H](O)CO)cnc21` [TAK-733], for which the “Score (sum of observed SD values for 18 genes)” value under setting [1] is −40.08 SD.

Consider `Cl.O=C(O)Cc1cccc(OCCCN(Cc2cccc(C(F)(F)F)c2Cl)CC(c2ccccc2)c2ccccc2)c1` [GW3965 HCI], for which the “Score (sum of observed SD values for 18 genes)” value under setting [1] was −11.35 SD.

For `Cc1[nH]c(/C=C2\C(=O)Nc3ccc(S(=O)(=O)Cc4c(Cl)cccc4Cl)cc32)c(C)c1C(=O)N1CCC[C@@H]1CN1CCCC1` [PHA-665752], the “Score (sum of observed SD values for 18 genes)” value under setting [1] is reported as −13.95 SD.

For the compound `COc1cc2c(N3CCN(C(=O)Nc4ccc(OC(C)C)cc4)CC3)ncnc2cc1OCCCN1CCCCC1` [Tandutinib], the “Score (sum of observed SD values for 18 genes)” value under setting [1] is reported as −14.99 SD.

Take `Cl.Cl.Fc1cc(-c2cccc3ncc(-c4cnn(C5CCNCC5)c4)nc23)cc(F)c1CN1CCOCC1` [NVP-BSK805 2HCI]: the “Score (sum of observed SD values for 18 genes)” value under setting [1] was −43.77 SD.

In the case of `Nc1nccc(Oc2ccc(NC(=O)c3c[nH]cc(-c4ccc(F)cc4)c3=O)cc2F)c1Cl` [BMS 794833], the “Score (sum of observed SD values for 18 genes)” value under setting [1] was −23.46 SD.

As for `Cc1cc(Nc2cc(N3CCN(C)CC3)nc(Sc3ccc(NC(=O)C4CC4)cc3)n2)[nH]n1` [Tozasertib], the “Score (sum of observed SD values for 18 genes)” value under setting [1] is on record as −4.08 SD.

With `CN(C)Cc1ccc(-c2nc3cccc4c3n2CCNC4=O)cc1` [AG14361], the “Score (sum of observed SD values for 18 genes)” value under setting [1] is 2.72 SD.

On to `CN(CCOc1ccc(CC2SC(=O)NC2=O)cc1)c1ccccn1` (centres unmarked) [Rosiglitazone], for which, under setting [1], the “Score (sum of observed SD values for 18 genes)” value is listed as −27.32 SD.

Consider `CC(C)(C)c1cnc(CSc2cnc(NC(=O)C3CCNCC3)s2)o1` [SNS-032], for which the “Score (sum of observed SD values for 18 genes)” value under setting [1] is recorded as -62.71 SD. In addition, the “synergy / antagonism of drug” value (OVCAR-8, drug 100 nM) is “strong synergies with multiple genes”.

For `COC(=O)Nc1nc2ccc(C(=O)c3cccs3)cc2[nH]1` [Nocodazole], the “Score (sum of observed SD values for 18 genes)” value under setting [1] is reported as −7.78 SD.

As for `COc1cc2nccc(Oc3ccc(NC(=O)Nc4cc(C)on4)c(Cl)c3)c2cc1OC` [Tivozanib], the “Score (sum of observed SD values for 18 genes)” value under setting [1] was −16.34 SD.

As for `CO[C@H]1C[C@@H]2CC[C@@H](C)[C@@](O)(O2)C(=O)C(=O)N2CCCC[C@H]2C(=O)O[C@H]([C@H](C)C[C@@H]2CC[C@@H](OC(=O)C(C)(CO)CO)[C@H](OC)C2)CC(=O)[C@H](C)/C=C(\C)[C@@H](O)[C@@H](OC)C(=O)[C@H](C)C[C@H](C)/C=C/C=C/C=C/1C` [Temsirolimus], the “Score (sum of observed SD values for 18 genes)” value under setting [1] is -56.85 SD.

Turning to `Cc1nc2ccc(CN(C)c3ccc(C(=O)N[C@@H](CCC(=O)O)C(=O)O)s3)cc2c(=O)[nH]1` [Raltitrexed], under setting [1], the “Score (sum of observed SD values for 18 genes)” value turned out to be 44.53 SD.

With `O=C(/C=C/c1cccnc1)NCCCCC1CCN(C(=O)c2ccccc2)CC1` [APO866], the “Score (sum of observed SD values for 18 genes)” value under setting [1] stood at 7.8 SD.

For SNS-314 Mesylate, the “Score (sum of observed SD values for 18 genes)” value under setting [1] was −1.05 SD.

Take `C[S+]([O-])c1ccc(-c2nc(-c3ccc(F)cc3)c(-c3ccncc3)[nH]2)cc1` (centres unmarked) [SB 203580]: the “Score (sum of observed SD values for 18 genes)” value under setting [1] is −40.85 SD. Under setting [2], the “number of genes (of 18) whose knockdown synergizes with the drug” value is given as 9 genes.

Regarding `CCOc1ccn(-c2ccc(F)cc2)c(=O)c1C(=O)Nc1ccc(Oc2ccnc(N)c2Cl)c(F)c1` [BMS 777607], the “Score (sum of observed SD values for 18 genes)” value under setting [1] was −14.73 SD.

Turning to `CN1CCN(c2ccc3nc(-c4c(N)c5c(F)cccc5[nH]c4=O)[nH]c3c2)CC1` [Dovitinib], the “Score (sum of observed SD values for 18 genes)” value under setting [1] was −22.96 SD.

For `CC(=O)Nc1ccc(OC[C@](C)(O)C(=O)Nc2ccc([N+](=O)[O-])c(C(F)(F)F)c2)cc1` [Andarine], under setting [1], the “Score (sum of observed SD values for 18 genes)” value is listed as −7.28 SD.

As for `Nc1ccccc1NC(=O)c1ccc(CNC(=O)OCc2cccnc2)cc1` [Entinostat], under setting [1], the “Score (sum of observed SD values for 18 genes)” value is reported as 12.38 SD. The “synergy / antagonism of drug” value (OVCAR-8, drug 100 nM) is reported as “frequently antagonized by knockdown of specific genes”.

As to `CC(NC(=O)c1ccccc1/N=C/c1c(O)ccc2ccccc12)c1ccccc1` (centres unmarked) [Sirtinol], the “Score (sum of observed SD values for 18 genes)” value under setting [1] is listed as −2.18 SD.

On to `COc1cc(Nc2ncc(F)c(Nc3ccc4c(n3)NC(=O)C(C)(C)O4)n2)cc(OC)c1OC` [R406], for which the “Score (sum of observed SD values for 18 genes)” value under setting [1] is on record as −28.54 SD.

On to `O=C(O)c1ccc2c(c1)nc(Nc1cccc(Cl)c1)c1ccncc12` [Silmitasertib], for which, under setting [1], the “Score (sum of observed SD values for 18 genes)” value is recorded as −4.51 SD.

Regarding `N.N.[Cl][Pt][Cl]` [Cisplatin], under setting [1], the “Score (sum of observed SD values for 18 genes)” value is listed as −21 SD.

Consider `Cc1c[nH]c(-c2cnc(NCCNc3ccc(C#N)cn3)nc2-c2ccc(Cl)cc2Cl)n1` [CHIR-99021], for which, under setting [1], the “Score (sum of observed SD values for 18 genes)” value is −2.4 SD.

With `CN(C)Cc1c(C(=O)NCCOc2ccc(C(=O)NO)cc2)oc2ccccc12` [PCI-24781], the “Score (sum of observed SD values for 18 genes)” value under setting [1] is -54.91 SD. Besides, the “synergy / antagonism of drug” value (OVCAR-8, drug 100 nM) is given as “mostly synergistic”. In addition, under setting [2], the “number of genes (of 18) whose knockdown synergizes with the drug” value is reported as 12 genes.
